Test results published in patent US5374765A, “Method for extracting an amino acid ester from a hydrous solution of a mineral acid salt thereof” (priority 1990, dated 1994).

Assay: Extraction of amino acid ester from aqueous mineral acid salt solution into 1,2-dichloroethane at constant pH (Table 1)
Method: 0.1 mole of a mineral acid salt of an amino acid ester, shown in Table 1 was dissolved or suspended in 30 g of water. Thereto was added 60 g of 1,2-dichloroethane. While the mixture was kept at 20°-25° C. and stirred, a 20% water solution of sodium hydroxide was dropwise added thereto in 0.5 hour, and then stirring and extraction were carried out for 0.5 hour while the pH of the aqueous layer was kept at a constant level in the range of 6.5-8.5. The organic layer was separated from the aqueous layer. Then, there were measured percent extraction of fed amino acid ester in organic layer, percent remaining of said ester in aqueous layer, and percent hydrolysis of said ester in aqueous layer (the hydrolyzed ester remains in the aqueous layer as an amino acid).

[1] = pH 6.5, 20-25 °C, 1,2-dichloroethane
[2] = pH 7.5, 20-25 °C, 1,2-dichloroethane
[3] = pH 8.5, 20-25 °C, 1,2-dichloroethane

Row | Compound | Ester in aqueous layer, percent hydrolysis [1] | Ester in aqueous layer, percent remaining [1] | Percent extraction of ester in organic layer [1] | Ester in aqueous layer, percent hydrolysis [2] | Ester in aqueous layer, percent remaining [2] | Percent extraction of ester in organic layer [2] | Ester in aqueous layer, percent hydrolysis [3] | Ester in aqueous layer, percent remaining [3] | Percent extraction of ester in organic layer [3] | Ester in aqueous layer, percent remaining (pH 6.5) | Ester in aqueous layer, percent remaining (pH 7.5) | Ester in aqueous layer, percent remaining (pH 8.5) | Ester in aqueous layer, percent hydrolysis (water/1,2-dichloroethane, pH 6.5) | Ester in aqueous layer, percent hydrolysis (water/1,2-dichloroethane, pH 7.5) | Ester in aqueous layer, percent hydrolysis (water/1,2-dichloroethane, pH 8.5)
1 | COC(=O)[C@@H](N)CCCCN.Cl [Methyl L-lysinate hydrochloride] | 0% | 18% | 82% | 0% | 9% | 91% | 3% | 3% | 94% | – | – | – | – | – | –
2 | COC(=O)CCCN.Cl [Methyl γ-aminobutyrate hydrochloride] | 0% | 11% | 89% | 0% | 4% | 96% | 3% | 2% | 95% | – | – | – | – | – | –
3 | Methyl L-aspartate hydrochloride | – | – | 88% | – | – | 96% | – | – | 96% | 12% | 3% | 1% | 0% | 1% | 3%
4 | COC(=O)[C@@H](N)CO.Cl [Methyl L-serinate hydrochloride] | 0% | 14% | 86% | 0% | 5% | 95% | 4% | 2% | 94% | – | – | – | – | – | –
5 | Cl.N[C@@H](Cc1ccccc1)C(=O)Oc1ccccc1 [Phenyl L-phenylalaninate hydrochloride] | 0% | 6% | 94% | 2% | 1% | 97% | 7% | 1% | 92% | – | – | – | – | – | –
6 | CCOC(=O)[C@@H](N)Cc1ccccc1.Cl [Ethyl L-phenylalaninate hydrochloride] | 0% | 8% | 92% | 0% | 2% | 98% | 3% | 1% | 96% | – | – | – | – | – | –
7 | Cl.N[C@@H](Cc1ccccc1)C(=O)OCc1ccccc1 [Benzyl L-phenylalaninate hydrochloride] | 0% | 6% | 94% | 0% | 1% | 99% | – | 1% | 97% | – | – | – | – | – | –
8 | CCOC(=O)c1ccccc1N.Cl [Ethyl o-aminobenzoate hydrochloride] | 0% | 6% | 94% | 1% | 2% | 97% | 3% | 1% | 96% | – | – | – | – | – | –
